Laboratory results taken from US8618046B2, “Treatment of atherosclerosis with cholesterol ester transport protein mimotopes” (Affiris AG, priority 2007, dated 2013).
“Also recorded” adds a separate entry of the source.

Tested on: monoclonal antibody “Frida”
Test: In vitro inhibition (competition) ELISA with mAb Frida on coated original CETP epitope
Format: binding, mouse
Details: for inhibition in in vitro competition ELISA, mAb “Frida” (in words): monoclonal antibodies “Frida” and, where stated, “James”; for inhibition ELISA signal, high: high peptide amount; for inhibition ELISA signal, low: low peptide amount; for inhibition ELISA signal, first value column / inhibition ELISA signal, second value column: FIG. 18b, column without head
Experimental: Different amounts of peptides (2 and 20 μg, as indicated in the respective figures) derived from Phage Display were incubated with the monoclonal antibody that was used for the screening procedure. Peptides diminishing subsequent binding of the antibody to the original CETP epitope (C-terminal 16 amino acids of CETP protein) coated on ELISA plates were considered as inhibiting. (Results see i.a. FIGS. 19a to 19c)

[1] = FIG. 18c, 2.5 ng mAb Frida, coat 1 μM 4073, detection αIgG1
[2] = coat 1 μM 4073 peptide, detection αIgG1
[3] = FIG. 18a, 2.5 ng mAb Frida, coat 1 μM 4073 peptide, detection αIgG1

**Q.** For “C-FPEHLLVDFLQSLS (N-terminal Cys) [reference compound]”, which “inhibition in in vitro competition ELISA, mAb “Frida” (in words)” value (“inhibition in in vitro competition ELISA” for short) is on record?
**A.** inhibiting in vitro

**Q.** For “C-FPEHLLVDFLQSL (N-terminal Cys) [reference compound]”, which “inhibition in in vitro competition ELISA” value is on record?
**A.** not inhibiting in vitro

**Q.** For “C-FGFPAHVSIDWLQSLS (N-terminal cysteine; CETP mimotope) [Fr12/3/84 ext2]”, which “inhibition in in vitro competition ELISA” value is on record?
**A.** significant inhibition; also recorded: Strongly inhibiting

**Q.** Which results are given for “C-FGFPSHIIIDWLQSLS (N-terminal Cys; CETP mimotope) [p4432]”?
**A.** inhibition ELISA signal, high [1]: 0.096; inhibition ELISA signal, low [1]: 0.635

**Q.** Which “inhibition ELISA signal, first value column” value [2] does the source give for “C-DFGFPAHVFIDWLQSLN (N-terminal cysteine; CETP mimotope) [p4818]” here?
**A.** 0.332

**Q.** And the “inhibition ELISA signal, second value column” value [2]?
**A.** 0.091

**Q.** How did the “inhibition ELISA signal, first value column” value [2] turn out when “C-FGFPAHVYIDWLQ (N-terminal cysteine; CETP mimotope) [p4630]” was run?
**A.** 2.131

**Q.** What about the “inhibition ELISA signal, second value column” value [2] of the same substance?
**A.** 2.115

**Q.** For C-FGFPAHVFIDWLQSLS [p4361], which “inhibition ELISA signal, 2 μg peptide” value (FIG. 10a, 2.5 ng mAb Frida, coat 1 μM peptide, detection αIgG1, 2 μg peptide) is on record?
**A.** 0.82

**Q.** And the “inhibition ELISA signal, 20 μg peptide” value (FIG. 10a, 2.5 ng mAb Frida, coat 1 μM peptide, detection αIgG1, 20 μg peptide)?
**A.** 0.16

**Q.** For “C-FGFPEHLLVDFLQSL (N-terminal Cys) [reference compound]”, which “inhibition in in vitro competition ELISA” value is on record?
**A.** inhibiting in vitro

**Q.** “C-AAFAAHLLADFLQAAA (N-terminal Cys; CETP mimotope) [p4436]” was tested. Which “inhibition ELISA signal, high” value [1] did it give?
**A.** 1.691

**Q.** And the “inhibition ELISA signal, low” value [1]?
**A.** 1.632

**Q.** Which results are given for “C-DFGFPAHVTIDWLQSLN (N-terminal cysteine; CETP mimotope) [p4989]”?
**A.** inhibition ELISA signal, first value column [2]: 0.932; inhibition ELISA signal, second value column [2]: 0.274

**Q.** For “C-FGFPSHLIIEWLQSLS (N-terminal Cys; CETP mimotope) [p4433]”, which “inhibition ELISA signal, high” value [1] is on record?
**A.** 0.672

**Q.** What about the “inhibition ELISA signal, low” value [1] of the same substance?
**A.** 1.114

**Q.** What does the source list for “C-AAFPAHLLADAAQALA (N-terminal Cys; CETP mimotope) [p4434]”?
**A.** inhibition ELISA signal, high [1]: 1.461; inhibition ELISA signal, low [1]: 1.74

**Q.** How did the “inhibition in in vitro competition ELISA” value turn out when “C-GFPEHLLVDFLQSLS (N-terminal Cys) [reference compound]” was run?
**A.** inhibiting in vitro

**Q.** How did the “inhibition ELISA signal, first value column” value [2] turn out when FGFPAHVFIDWLQSLN-C [p5068] was run?
**A.** 0.757

**Q.** What about the “inhibition ELISA signal, second value column” value [2] of the same substance?
**A.** 0.271

**Q.** How did the “inhibition ELISA signal, high” value [3] turn out when “FGFPEHLLVDFLQSLS-C (C-terminal Cys; CETP mimotope) [p1208, positive control peptide, reference compound]” was run?
**A.** 0.093

**Q.** What about the “inhibition ELISA signal, low” value [3] of the same substance?
**A.** 0.712

**Q.** And the “inhibition ELISA signal, first value column” value [2]?
**A.** 0.264

**Q.** And the “inhibition ELISA signal, second value column” value [2]?
**A.** 0.079

**Q.** And the “inhibition ELISA signal, high” value [1]?
**A.** 0.101

**Q.** And the “inhibition ELISA signal, low” value [1]?
**A.** 0.942

**Q.** What does the source list for “C-FGFPAHVFIDWLQSLN (N-terminal cysteine; CETP mimotope) [p4474]”?
**A.** inhibition ELISA signal, high [3]: 0.179; inhibition ELISA signal, low [3]: 1.452

**Q.** What does the source list for “C-DFGFPAHVFIDWLQSLS (N-terminal cysteine; CETP mimotope) [p4480]”?
**A.** inhibition ELISA signal, high [3]: 0.103; inhibition ELISA signal, low [3]: 0.521

**Q.** With “C-FGFPEHVFIDWLQSLS (N-terminal cysteine; CETP mimotope) [p4477]” as the substance, how does the “inhibition ELISA signal, high” value [3] read?
**A.** 0.116

**Q.** And the “inhibition ELISA signal, low” value [3]?
**A.** 0.808

**Q.** “C-DFGFPSHLIIDWLQSLS (N-terminal cysteine; CETP mimotope) [p4642]” was tested. Which “inhibition ELISA signal, first value column” value [2] did it give?
**A.** 0.171

**Q.** What about the “inhibition ELISA signal, second value column” value [2] of the same substance?
**A.** 0.082

**Q.** Which results are given for “FGFPAHVYIDWLQSLS-C (C-terminal cysteine; CETP mimotope) [p5067]”?
**A.** inhibition ELISA signal, first value column [2]: 0.563; inhibition ELISA signal, second value column [2]: 0.217

**Q.** Which results are given for “C-PAHVYIDWLQSLS (N-terminal cysteine; CETP mimotope) [p4629]”?
**A.** inhibition ELISA signal, first value column [2]: 0.313; inhibition ELISA signal, second value column [2]: 0.118

**Q.** How did the “inhibition ELISA signal, high” value [3] turn out when “C-FGFPAHFSIDWLQSLS (N-terminal cysteine; CETP mimotope) [p4475]” was run?
**A.** 1.429

**Q.** And the “inhibition ELISA signal, low” value [3]?
**A.** 2.211

**Q.** For “C-PAHVFIDWLQ (N-terminal cysteine; CETP mimotope) [p4820]”, which “inhibition ELISA signal, first value column” value [2] is on record?
**A.** 2.310

**Q.** What about the “inhibition ELISA signal, second value column” value [2] of the same substance?
**A.** 2.374
